Results taken from US20040009899A1, “Treating dominant disorders” (priority 2002, published 2004).

What was measured:
[1] = tested on: endogenous mouse Hdh allele; experiment: Western immunoblot of endogenous mouse htt expression in PNA-treated R6/1 mice; assay type: in vivo; conditions: any tissue examined (striatum, liver), any tested time point (4 or 6 days)
Protocol: Cannulation and microsurgery—method 1: B6CBA, R6/1, and R6/2 mice were obtained from The Jackson Laboratory (Bar Harbor, Me.). Mice were anesthetized via intraperitoneal (i.p.) injection with 100 mg/kg of a ketamine/xylazine solution containing 8 mg/mL ketamine and 1 mg/mL xylazine in 0.9% saline. Once anesthetized, each mouse was cannulated. Each anesthetized mouse was placed in a Stoelting Stereotaxic Frame with a mouse adapter (Stoelting Instruments, Wood Dale, Ill.). An incision was made using a scalpel, and the skin and tissue were pulled back with swabs to reveal the skull. The cannulation site was positioned for optimum access to the ventricle, at coordinates AP −0.2 mm, Horiz −1 mm from bregma. A cannula entry port and two bone screw ports were opened in the skull using a Dremel Flex Shaft Drill (Stoelting Instruments) with a 2.1 mm burr for the guide cannula port and a 0.7 mm burr for the bone screws (Fine Science Tools, Foster City, Calif.). Two 4.0 mm long bone screws (0.85 diameter) were placed far enough into the bone screw ports to fasten securely. […]
Following the treatment period, mice were anesthetized with ether and sacrificed by cervical dislocation. […] Following centrifugation, the supernatants were removed and protein concentrations were quantified by Bradford assays using a BSA standard. […]

mice = experiment: Toxicity observation (behavior, weight, motor function) during intraventricular PNA treatment; assay type: in vivo; conditions: 1.0 μL (25 μg/μL) into the ventricle every other day
Protocol: Animal treatment and tissue preparation: Aliquots of 1.0 μL (25 μg/μL) of a PNA oligomer specific for the expanded human HD allele (HDs) or a scrambled control PNA (HDscr) were administered into the ventricle every other day by injection via the cannula.

R6/2 mice = experiment: Clasping test; assay type: in vivo, mouse; conditions: any group (2.0, 5.0 or 20.0 mg/kg i.p. every 48 hours)
Protocol: Clasping test: Dystonic movement was assessed using a procedure adapted from Yamamoto and colleagues (Yamamoto et al., Cell, 101:57-66, 2000). Each animal was suspended by the tail for 15 seconds, and its behavior was videotaped for subsequent analysis. The number and duration of abnormal movements were recorded upon viewing the videotaped behavior. An abnormal movement was defined as any dystonic movement of hindlimbs and/or forelimbs and/or trunk during which the limbs were pulled in toward the body in a manner distinct from that observed in wild-type mice. The duration of dystonic movements was recorded as a percent of total time. Mice were assessed for clasping score and clasping duration. The test period was divided into 2-second increments.
In other experiments, R6/2 mice were divided into five groups (designated groups 1-5) containing eight to ten animals each. Groups 1-4 received either saline (group 1) or a specific amount of HDs (groups 2-4). Group 5 included untreated R6/2 mice. A sixth group included untreated non-transgenic B6CBA control mice. […]
At 9 weeks of age, the mice in each group received saline (group 1) or HDs at 2.0 mg/kg, 5.0 mg/kg, or 20.0 mg/kg (groups 2, 3, and 4, respectively) by i.p. injection every 48 hours. […] Weight stability, clasping behavior, motility, and motor skill were assessed weekly during the treatment period. […]

“HDs: sense PNA oligomer, 14 residues, 5′-GGACTGCCGTGCCG-3′ (SEQ ID NO:3), specific for the expanded human HD allele (all peptide nucleic acid (PNA))” was tested, and the “effect on expression of the endogenous mouse Hdh allele” value [1] was “Neither HDs nor HDscr had any effect”, the “toxicity as measured by weight or motor function relative to untreated animals” value (mice) was “no effects of toxicity” and the “clasping behavior over the treatment period” value (R6/2 mice) was “No significant alterations in clasping behavior”.
